# Experimental data published in patent US20210198259A1, “HETEROCYCLIC DERIVATIVES AND USE THEREOF” (C&C RESEARCH LABORATORIES, priority 2018, published 2021).
# Where a name gives a salt, the structure may show the parent alone.
# Test system: not listed separately
# Test: Test for pharmacokinetics in ICR mice (oral)
# Assay type: in vivo
# Details: 50 mg/kg, ICR mouse, 5 mg/mL solution at 10 mL/kg, plasma
# Protocol: As the administration solution for mice of the compounds prepared in the above
# Examples, the compound of Example 55 of International Publication No. WO 2010/030785 and the compound of Example 4 of International Publication No. WO 2013/048214, 20% hydroxypropyl-β-cyclodextrin solution (99.75%) and 2N HCl (0.25%) were added sequentially to make 5 mg/mL. Provided that in the case of the compound of Example 10, 99.5% of 20% hydroxypropyl-β-cyclodextrin solution and 0.5% of 2N HCl […] were added.
# The weight of each ICR mouse was properly 20-30 g. Dosage of the compound of the present invention was 10 mL/kg, and administered orally using Zonde. Blood collection was performed at 0.5, 1, 2, 4, 7 and 24 hours by orbital venous blood collection using a capillary tube coated with an anticoagulant, and then plasma was isolated using a centrifuge and kept in a freezer.
# Plasma collected from animals and standard concentration material were pre-treated using solid-phase extraction, and concentration of the compound of the invention was determined using a liquid chromatography mass spectrometer (Agilent HPLC, API-4000 Qtrap). According to the resulting concentration value, the pharmacokinetics parameter was found using WinNonlin (Version 7.0) and half-life (t1/2), maximum blood concentration (Cmax) and area under the curve (AUCall) are represented in Table 2.
AUC [ng·h/mL],Cmax [ng/mL],half-life [h],Structure (SMILES)
1390,570,1.73,"CN1CCN(C2=Nc3ccc(Br)cc3N3CC(=O)N=C23)CC1 [Example 12, 8-bromo-4-(4-methylpiperazin-1-yl)imidazo[1,2-a]quinoxalin-2(1H)-one]"
8650,2280,3.81,"CN1CCN(C2=Nc3ncc(Br)cc3N3CC(=O)N=C23)CC1 [Example 1, 8-bromo-4-(4-methylpiperazin-1-yl)imidazo[1,2-a]pyrido[2,3-e]pyrazin-2(1H)-one]"
920,360,2.04,"CN1CCN(C2=Nc3ccc([N+](=O)[O-])cc3N3CC(=O)N=C23)CC1 [Example 10, 4-(4-methylpiperazin-1-yl)-8-nitroimidazo[1,2-a]quinoxalin-2(1H)-one]"

# Target: T1, human histamine 4 receptor (hH4R) (Homo sapiens, UniProt Q9H3N8)
# T1 construct: purchased Multispan
# Test: Binding affinity of human histamine 4 receptor (hH4R), [3H] histamine displacement
# Details: [3H] labeled histamine, hH4R-overexpressed cell membrane
# Protocol: The compounds prepared in the above Examples, the compound of Example 55 of International Publication No. WO 2010/030785 and the compound of Example 4 of International Publication No. WO 2013/048214 were diluted by 1,000 fold (v/w) with DMSO, and then 1 mL of the diluted compound solution was mixed with 99 mL of the analysis buffer solution (50 mM tris-HCl pH 7.4, 5 mM EDTA) to obtain concentration of 1 μM. […] of the prepared compound solution was transferred to each well of a 96-well plate, and then 20 mL of 100 μM histamine diluted with analysis buffer solution and 1% DMSO were transferred to each well to calculate non-specific binding and total binding degree. 15 μg of human histamine 4 receptor-overexpressed cell membrane (Multispan) was diluted into […] of analysis buffer solution and that was transferred to each well. [^3H] labeled histamine (PerkinElmer) was diluted into 10 nM concentration, 20 mL was allocated in each well, and then it was kept in a 27° C. incubator for 30 minutes. After the reaction, 100 mL of the mixture was transferred to a glass fiber plate in which 0.5% polyethylene amine was pre-soaked, and then non-binding [^3H] labeled histamine was removed in vacuum. After 6 times washing with 200 mL of washing buffer solution (50 mM tris-HCl, pH 7.4), the plate was dried in a 37° C. oven for 18 hours. […] of betaScint cocktail solution was added to each well, and after 10 minutes CPM (count per minute) value of [^3H] labeled histamine was measured by the use of Micro beta2™. The binding affinity (% inhibition) of the human histamine 4 receptor for the compounds of the present invention was analyzed by an Excel program, and the results of analysis are represented in Table 1.
Structure (SMILES),inhibition at 1 µM [%],Human histamine 4 receptor (hH4R) binding affinity (% inhibition at 1 μM) [%]
"CN1CCN(c2nc3ncc(Br)cc3n3c(=O)[nH]nc23)CC1 [Example 6, 8-bromo-4-(4-methylpiperazin-1-yl)pyrido[2,3-e][1,2,4] triazolo[4,3-a]pyrazin-1(2H)-one]",42.6,
"O=C1CN2C(=N1)C(N1CCN3CCCC3C1)=Nc1ncc(Br)cc12 (stereo not shown) [Example 5, 8-bromo-4-(hexahydropyrrolo[1,2-a]pyrazin-2(1H)-yl)imidazo[1,2-a]pyrido[2,3-e]pyrazin-2(1H)-one]",55.9,
"CN1CCN(C2=Nc3ccc(Br)cc3N3CC(=O)NN=C23)CC1 [Example 14, 9-bromo-5-(4-methylpiperazin-1-yl)-1H -[1,2,4]triazino[43-a]quinoxalin-2(3H)-one]",52.6,
"CN1CCN(C2=Nc3ccc(Br)cc3N3CC(=O)N=C23)CC1 [Example 12, 8-bromo-4-(4-methylpiperazin-1-yl)imidazo[1,2-a]quinoxalin-2(1H)-one]",101,
"CN[C@@H]1CCN(C2=Nc3ncc(Br)cc3N3CC(=O)N=C23)C1 [Example 3, (R)-8-bromo-4-(3-(methylamino)pyrrolidin-1-yl)imidazo[1,2-a]pyrido[2,3-e]pyrazin-2(1H)-one]",9.8,
"CNC1CN(C2=Nc3ncc(Br)cc3N3CC(=O)N=C23)C1 [Example 2, 8-bromo-4-(3-(methylamino)azetidin-1-yl)imidazo[1,2-a]pyrido[2,3-e]pyrazin-2(1H)-one]",39.5,
"CN[C@H]1CCN(C2=Nc3ncc(Br)cc3N3CC(=O)N=C23)C1 [Example 4, (S)-8-bromo-4-(3-(methylamino)pyrrolidin-1-yl)imidazo[1.2-a]pyrido[2.3-e]pyrazin-2(1H)-one]",-4.38,
"CN1CCN(C2=Nc3ncc(Br)cc3N3CC(=O)N=C23)CC1 [Example 1, 8-bromo-4-(4-methylpiperazin-1-yl)imidazo[1,2-a]pyrido[2,3-e]pyrazin-2(1H)-one]",79.7,
"CN1CCN(C2=Nc3ccc(N)cc3N3CC(=O)N=C23)CC1 [Example 11, 8-amino-4-(4-methylpiperazin-1-yl)imidazo[1,2-a]quinoxalin-2(1H)-one]",44.8,
"CN1CCN(C2=Nc3nc(Cl)c(Br)cc3N3CC(=O)N=C23)CC1 [Example 8, 8-bromo-7-chloro-4-(4-methylpiperazin-1-yl)imidazo[1,2-a]pyrido[2,3-e]pyrazin-2(1H)-one]",88.9,
"CN1CCN(c2nc3ncc(Br)cc3n3[nH]c(=O)nc23)CC1 [Example 7, 8-bromo-4-(4-methylpiperazin-1-yl)pyrido[2,3-e][1,2,4] triazolo[1,5-a]pyrazin-2(1H)-one]",-1.12,
"CN1CCN(C2=Nc3nc(F)c(Br)cc3N3CC(=O)N=C23)CC1 [Example 9, 8-bromo-7-fluoro-4-(4-methylpiperazin-1-yl)imidazo[1.2-a]pyrido[2,3-e]pyrazin-2(1H)-one]",94.4,
"CN1CCN(C2=Nc3ccc([N+](=O)[O-])cc3N3CC(=O)N=C23)CC1 [Example 10, 4-(4-methylpiperazin-1-yl)-8-nitroimidazo[1,2-a]quinoxalin-2(1H)-one]",98.1,

# The next lines start with the values.
inhibition at 1 µM [%],Human histamine 4 receptor (hH4R) binding affinity (% inhibition at 1 μM) [%],Structure (SMILES)
99.2,,"CN1CCN(C2=Nc3ccc(Br)c(Br)c3N3CC(=O)N=C23)CC1 [Example 15, 8,9-dibromo-4-(4-methylpiperazin-1-yl)imidazo[1,2-a]quinoxalin-2(1H)-one]"
20.5,,"CNC1CN(C2=Nc3ncc(Cl)cc3N3CC(=O)N=C23)C1 [Example 20, 8-chloro-4-(3-(methylamino)azetidin-1-yl)imidazo[1,2-a]pyrido[2,3-e]pyrazin-2(1H)-one]"
-5.98,,"CNC1CN(C2=Nc3ccc(NS(C)(=O)=O)cc3N3CC(=O)N=C23)C1 [Example 16, N-(4-(3-(methylamino)azetidin-1-yl)-2-oxo-1,2-dihydroimidazo[1,2-a]quinoxalin-8-yl)methanesulfonamide]"
89.4,,"CNC1CN(C2=Nc3cnc(Cl)cc3N3CC(=O)N=C23)C1 [Example 23, 8-chloro-4-(3-(methylamino)azetidin-1-yl)imidazo[1.2-a]pyrido[3.4-e]pyrazin-2(1H)-one hydrochloride]"
97.3,,"CN1CCN(C2=Nc3ccc(Cl)nc3N3CC(=O)N=C23)CC1 [Example 29, 2-chloro-6-(4-methylpiperazin-1-yl)imidazo[1,2-a]pyrido[3,2-e]pyrazin-8(9H)-one]"
97.7,,"CNC1CN(C2=Nc3ccc(Cl)nc3N3CC(=O)N=C23)C1 [Example 31, 2-chloro-6-(3-(methylamino)azetidin-1-yl)imidazo[1,2-a]pyrido[3,2-e]pyrazin-8(9H)-one]"
,91.9,"CNC1CN(C2=Nc3cnc(Cl)cc3N3CC(=O)N=C23)C1 [Example 24, 8-chloro-4-(3-(methylamino)azetidin-1-yl)imidazo[1,2-a]pyrido[3,4-e]pyrazin-2(1H)-one]"
97.4,,"CNC1CN(C2=Nc3ccc(Br)nc3N3CC(=O)N=C23)C1 [Example 32, 2-bromo-6-(3-(methylamino)azetidin-1-yl)imidazo[1,2-a]pyrido[3,2-e]pyrazin-8(9H)-one]"
34.1,,"CNC1CN(C2=Nc3ccc(N)cc3N3CC(=O)N=C23)C1 [Example 18, 8-amino-4-(3-(methylamino)azetidin-1-yl)imidazo[1,2-a]quinoxalin-2(1H)-one]"
93.4,,"CNC1CN(C2=Nc3cnc(Br)cc3N3CC(=O)N=C23)C1 [Example 26, 8-bromo-4-(3-(methylamino)azetidin-1-yl)imidazo[1,2-a]pyrido[3,4-e]pyrazin-2(1H)-one]"
22.6,,"CN1CCN(C2=Nc3ncc(Br)cc3N3CS(=O)(=O)N=C23)CC1 [Example 27, 8-bromo-4-(4-methylpiperazin-1-yl)-1H-pyrido[2,3-e][1,2,4]thiadiazolo[4,3-a]pyrazin 2,2-dioxide]"
96,,"CNC1CN(C2=Nc3ccc(Cl)cc3N3CC(=O)N=C23)C1 [Example 19, 8-chloro-4-(3-(methylamino)azetidin-1-yl)imidazo[1,2-a]quinoxalin-2(1H)-one]"
87.1,,"CN1CCN(C2=Nc3ncc(Cl)cc3N3CC(=O)N=C23)CC1 [Example 17, 8-chloro-4-(4-methylpiperazin-1-yl)imidazo[1,2-a]pyrido[2,3-e]pyrazin-2(1H)-one]"
86.3,,"CN1CCN(C2=Nc3cc(Cl)ncc3N3CC(=O)N=C23)CC1 [Example 22, 3-chloro-6-(4-methylpiperazin-1-yl)imidazo[1,2-a]pyrido[4,3-e]pyrazin-8(9H)-one]"
95.9,,"CNC1CN(C2=Nc3ccc(Br)cc3N3CC(=O)N=C23)C1 [Example 21, 8-bromo-4-(3-(methylamino)azetidin-1-yl)imidazo[1,2-a]quinoxalin-2(1H)-one hydrochloride]"
93.2,,"CN1CCN(C2=Nc3ccc(Br)nc3N3CC(=O)N=C23)CC1 [Example 30, 2-bromo-6-(4-methylpiperazin-1-yl)imidazo[1,2-a]pyrido[3,2-e]pyrazin-8(9H)-one]"
96.8,,"CN1CCN(C2=Nc3cnc(Cl)cc3N3CC(=O)N=C23)CC1 [Example 28, 8-chloro-4-(4-methylpiperazin-1-yl)imidazo[1,2-a]pyrido[3,4-e]pyrazin-2(1H)-one hydrochloride]"
96.9,,"CN1CCN(C2=Nc3cnc(Br)cc3N3CC(=O)N=C23)CC1 [Example 25, 8-bromo-4-(4-methylpiperazin-1-yl)imidazo[1,2-a]pyrido[3,4-e]pyrazin-2(1H)-one]"
